# Target: human RIP1 kinase domain (2-375) (Homo sapiens (Human), UniProt Q13546)
# Experiment: RIP1 kinase inhibition biochemical assay (Transcreener ADP, fluorescence polarization)
# Conditions: Ki app from tight-binding Morrison equation; 50 nM enzyme, 50 uM ATP, 2 hours incubation
# Method: RIP1 Kinase Inhibition Assays (Biochemical Assay)
# The compounds of the present invention were tested for their capacity to inhibit RIP1K activity as described below.
# The ability of the receptor interacting protein kinase (RIPK1) to catalyze the hydrolysis of adenosine-5′-triphosphate (ATP) is monitored using the Transcreener ADP (adenosine-5′-diphosphate) assay (BellBrook Labs). Purified human RIP1 kinase domain (2-375) (50 nM) derived from a baculovirus-infected insect cell expression system is incubated with test compounds for 2 hours in 50 mM Hepes buffer (pH 7.5) containing 30 mM MgCl2, 1 mM dithiothreitol, 50 uM ATP, 0.002% Brij-35, and 0.5% dimethyl sulfoxide (DMSO). Reactions are quenched by the addition of 1× Bell Brooks Stop buffer B (20 mM Hepes (ph7.5), 40 mM ethylenediaminetetraacetic acid and 0.02% Brij-35) containing an additional 12 mM EDTA and 55 ug/mL ADP2 antibody and 4 nM ADP-AlexaFluor® 633 tracer. The tracer bound to the antibody is displaced by the ADP generated during the RIP1K reaction, which causes a decrease in fluorescence polarization that is measured by laser excitation at 633 nm with a FP microplate reader M1000. Fractional activity was plotted against test article concentration. Using Genedata Screener software (Genedata; Basel, Switzerland), the data were fit to the tight-binding apparent inhibition constant (Ki^app) Morrison equation [Williams, J. W. and Morrison, J. F. (1979) The kinetics of reversible tight-binding inhibition. Methods Enzymol 63: 437-67]. The following equation was used to calculate fractional activity and Ki^app:
# [formula] where [E]T and [I]T are the total concentrations of active enzyme and test article, respectively.
# Exemplary compounds of the present invention are provided in Table 1 along with their physiochemical characterization and in vitro RIP1 kinase inhibitory activity data. “Method” in the first column of each table refers to the synthetic method(s) used to prepare each compound as shown in the Examples above. In certain examples, chiral column retention times (min) are provided for certain stereoisomers. Unless otherwise specified, the stereochemistry shown in each structure represents relative configuration of a single stereoisomer, and absolute configuration (i.e., “R” and/or “S”) is arbitrarily assigned. In some embodiments, where the Method is described to include the separation of stereoisomers, a single stereoisomer of a compound of Table 1 is provided.
# human RIP1 kinase domain (2-375), sequence (Q13546 2-375): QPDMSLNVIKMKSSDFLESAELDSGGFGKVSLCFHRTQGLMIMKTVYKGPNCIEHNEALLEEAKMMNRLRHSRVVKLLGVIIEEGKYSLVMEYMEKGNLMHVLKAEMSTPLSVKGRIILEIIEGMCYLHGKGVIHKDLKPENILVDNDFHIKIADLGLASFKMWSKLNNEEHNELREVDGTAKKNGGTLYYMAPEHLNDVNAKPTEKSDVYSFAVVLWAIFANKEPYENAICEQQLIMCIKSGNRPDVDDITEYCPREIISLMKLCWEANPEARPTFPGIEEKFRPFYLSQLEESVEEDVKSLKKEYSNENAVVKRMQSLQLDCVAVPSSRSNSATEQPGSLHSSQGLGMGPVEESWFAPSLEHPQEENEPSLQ
row,Compound,Ki
1,"[O-][S+](Cc1ccccc1)c1nc2n(n1)[C@H](c1ccccc1)C[C@@H]2F (stereo partly drawn) [Example 20, (5S,7S)-2-benzylsulfinyl-7-fluoro-5-phenyl-6,7-dihydro-5H-pyrrolo[1,2-b][1,2,4]triazole]",24 nM
2,"O=S(=O)(c1nc2n(n1)[C@H](c1cccc(F)c1F)C[C@@H]2F)[C@H]1C[C@@H]1F (single isomer, unassigned) [Example 217]",6 nM
3,"O=S(=O)(c1nc2n(n1)[C@H](c1ccccc1)C[C@@H]2F)[C@@H]1CCC1(F)F [Example 171, (5S,7S)-7-fluoro-5-phenyl-2-[(1R)-2,2-difluorocyclobutyl]sulfonyl-6,7-dihydro-5H-pyrrolo[1,2-b][1,2,4]triazole]",< 5 nM
4,"N#CC[S@+]([O-])c1cc2n(n1)[C@H](c1ccccc1)C[C@@H]2F (single isomer, unassigned) [Example 92]",19 nM
5,"[O-][S@+](c1nc2n(n1)[C@H](c1ccccc1)CC2)C(F)F [Example 11, (5S)-2-[(R)-difluoromethylsulfinyl]-5-phenyl-6,7-dihydro-5H-pyrrolo[1,2-b][1,2,4]triazole]",10 nM
6,"O=S(=O)(c1nc2n(n1)[C@H](c1ccccc1F)C[C@@H]2F)[C@H]1CC1(F)F (single isomer, unassigned) [Example 119]",7 nM
7,"O=S(=O)(c1nc2n(n1)[C@H](c1ccccc1)C[C@@H]2F)C1CC1 [Example 30, (5S,7S)-2-cyclopropylsulfonyl-7-fluoro-5-phenyl-6,7-dihydro-5H-pyrrolo[1,2-b][1,2,4]triazole]",4 nM
8,"O=S(=O)(c1nc2n(n1)[C@H](c1ccccc1)C[C@@H]2F)[C@H]1C[C@H](OC(F)F)C1 [Example 213, (5S,7S)-2-trans-[3-(difluoromethoxy)cyclobutyl]sulfonyl-7-fluoro-5-phenyl-6,7-dihydro-5H-pyrrolo[1,2-b][1,2,4]triazole]",6 nM
9,"COCS(=O)(=O)c1nc2n(n1)[C@H](c1ccccc1)C[C@@H]2F (single isomer, unassigned) [Example 116]",170 nM
10,"O=S(=O)(c1nc2n(n1)[C@H](c1ccc(F)c(F)c1)C[C@@H]2F)[C@@H]1C[C@H]1F (single isomer, unassigned) [Example 144]",9 nM
11,"COCCS(=O)(=O)c1nc2n(n1)[C@H](c1ccccc1)C[C@@H]2F (single isomer, unassigned) [Example 224]",180 nM
12,"CS(=O)(=O)c1nc2n(n1)[C@H](c1ccccc1F)CC2 (single isomer, unassigned) [Example 7]",250 nM
13,"N#CC[S@+]([O-])c1nc2n(n1)[C@H](c1ccc(F)cc1)C[C@@H]2F (single isomer, unassigned) [Example 99]",530 nM
14,"N#CC[S@@+]([O-])c1cc2n(n1)[C@H](c1ccccc1)C[C@@H]2F (single isomer, unassigned) [Example 91]",150 nM
15,"O=S(=O)(c1nc2n(n1)[C@H](c1ccccc1)C[C@@H]2F)[C@H]1C[C@@H](CO)C1 (single isomer, unassigned) [Example 168]",530 nM
16,"[O-][S@@+](CF)c1nc2n(n1)[C@H](c1ccccc1)C[C@@H]2F (single isomer, unassigned) [Example 73]",3 nM
17,"N#CCS(=O)(=O)c1cc2n(n1)[C@H](c1ccccc1)C[C@@H]2F (single isomer, unassigned) [Example 90]",8 nM
18,"O=S(=O)(c1nc2n(n1)[C@H](c1ccccc1)C[C@@H]2F)[C@H]1C[C@@H]1C(F)(F)F (mixture of isomers) [Example 163, (5S,7S)-7-fluoro-5-phenyl-2-[rac-(1S,2R)-2-(trifluoromethyl)cyclopropyl]sulfonyl-6,7-dihydro-5H-pyrrolo[1,2-b][1,2,4]triazole]",7 nM
19,"O=S(=O)(c1nc2n(n1)[C@H](c1ccccc1Cl)C[C@@H]2F)C(F)(F)F (single isomer, unassigned) [Example 134]",3 nM
20,"N#C[C@H]1C[C@H](S(=O)(=O)c2nc3n(n2)[C@H](c2ccccc2)C[C@@H]3F)C1 [Example 211, trans-3-[[(5S,7S)-7-Fluoro-5-phenyl-6,7-dihydro-5H-pyrrolo[1,2-b][1,2,4]triazol-2-yl]sulfonyl]cyclobutanecarbonitrile]",12 nM
21,"[O-][S@+](CF)c1nc2n(n1)[C@H](c1ccccc1F)C[C@@H]2F (single isomer, unassigned) [Example 75]",140 nM

row,Compound,Ki
1,"O=S(=O)(CCOC(F)F)c1nc2n(n1)[C@H](c1ccccc1)C[C@@H]2F (single isomer, unassigned) [Example 198]",68 nM
2,"[O-][S@+](c1nc2n(n1)[C@H](c1ccccc1)C[C@@H]2F)C(F)F [Example 22, (5S,7S)-2-[(R)-difluoromethylsulfinyl]-7-fluoro-5-phenyl-6,7-dihydro-5H-pyrrolo[1,2-b][1,2,4]triazole]",3 nM
3,"C[C@@H](F)S(=O)(=O)c1nc2n(n1)[C@H](c1ccccc1)C[C@@H]2F (single isomer, unassigned) [Example 159]",15 nM
4,"CC(C)(F)S(=O)(=O)c1nc2n(n1)[C@H](c1ccccc1)C[C@@H]2F (single isomer, unassigned) [Example 165]",25 nM
5,"O=S(=O)(c1nc2n(n1)[C@H](c1cccc(Cl)c1)C[C@@H]2F)C1CC1 [Example 203, (5S,7S)-5-(3-chlorophenyl)-2-cyclopropylsulfonyl-7-fluoro-6,7-dihydro-5H-pyrrolo[1,2-b][1,2,4]triazole]",39 nM
6,"[O-][S+](CC(F)(F)F)c1nc2n(n1)[C@H](c1ccccc1)C[C@@H]2F (stereo partly drawn) [Example 113, (5S,7S)-7-fluoro-5-phenyl-2-(2,2,2-trifluoroethylsulfinyl)-6,7-dihydro-5H-pyrrolo[1,2-b][1,2,4]triazole]",28 nM
7,"N#CCSc1nc2n(n1)[C@H](c1ccccc1)C[C@@H]2F (single isomer, unassigned) [Example 89]",10 nM
8,"N#CC[S@+]([O-])c1nc2n(n1)[C@H](c1ccccc1Cl)C[C@@H]2F (single isomer, unassigned) [Example 93]",92 nM
9,"O=S(=O)(c1nc2n(n1)[C@H](c1ccc(F)cc1)C[C@@H]2F)C1CC1 (single isomer, unassigned) [Example 34]",10 nM
10,"O=S(=O)(c1nc2n(n1)[C@@H](c1cccc(F)c1F)C[C@H]2F)C(F)(F)F (single isomer, unassigned) [Example 140]",540 nM
11,"C[C@H](F)S(=O)(=O)c1nc2n(n1)[C@H](c1ccccc1)C[C@@H]2F (single isomer, unassigned) [Example 160]",18 nM
12,"[O-][S@+](c1nc2n(n1)[C@H](c1ccccc1F)C[C@@H]2F)C(F)F (single isomer, unassigned) [Example 52]",3 nM
13,"N#CC[S@@+]([O-])c1nc2n(n1)[C@H](c1ccccc1F)C[C@@H]2F (single isomer, unassigned) [Example 96]",3 nM
14,"CC(C)(C)S(=O)(=O)c1nc2n(n1)[C@H](c1ccccc1)C[C@@H]2F (single isomer, unassigned) [Example 25]",32 nM
15,"O=S(=O)(c1nc2n(n1)[C@H](c1ccccc1Cl)C[C@@H]2F)[C@H]1CC1(F)F (single isomer, unassigned) [Example 120]",< 5 nM
16,"O=S(=O)(c1nc2n(n1)[C@H](c1cc(F)cc(F)c1F)C[C@@H]2F)C(F)F (single isomer, unassigned) [Example 60]",7 nM
17,"O=S(=O)(c1nc2n(n1)[C@H](c1cccc(F)c1F)C[C@@H]2F)[C@H]1C[C@H](F)C1 [Example 204, (5S,7S)-5-(2,3-difluorophenyl)-7-fluoro-2-trans-(3-fluorocyclobutyl)sulfonyl-6,7-dihydro-5H-pyrrolo[1,2-b][1,2,4]triazole]",16 nM
18,"O=S(=O)(c1nc2n(n1)[C@H](c1ccc(F)cc1)C[C@@H]2F)C1CC1F (stereo in doubt) [Example 197, (5S,7S)-7-fluoro-5-(4-fluorophenyl)-2-[(1R,2R)-2-fluorocyclopropyl]sulfonyl-6,7-dihydro-5H-pyrrolo[1,2-b][1,2,4]triazole]",8 nM
19,"O=S(=O)(c1nc2n(n1)[C@H](c1c(F)cccc1F)C[C@@H]2F)C(F)(F)F (single isomer, unassigned) [Example 139]",5 nM
20,"N#CC1CC1S(=O)(=O)c1nc2n(n1)[C@H](c1ccccc1)C[C@@H]2F (stereo in doubt) [Example 221, (1S,2S)-2-[[(5S,7S)-7-fluoro-5-phenyl-6,7-dihydro-5H-pyrrolo[1,2-b][1,2,4]triazol-2-yl]sulfonyl]cyclopropanecarbonitrile]",18 nM
21,"N#CCS(=O)(=O)c1nc2n(n1)[C@H](c1ccccc1)C[C@@H]2F (single isomer, unassigned) [Example 88]",32 nM
